Measured values from PMC4188605, “Biochemical and Pharmacological Characterization of the Human Lymphocyte Antigen B-Associated Transcript 5 (BAT5/ABHD16A)” (PLoS ONE, 2014).
Entries after “also recorded” stand apart in the source; their conditions may differ.

Key:
[1] = biological target: T1, hMAGL (Homo sapiens, UniProt Q99685); test: Hydrolase activity assay, hMAGL-HEK lysates; format: biochemical; conditions: hMAGL-HEK lysates
T1 construct: expressed in transfected cells; host or cells: HEK
T1 sequence (Q99685 1-303): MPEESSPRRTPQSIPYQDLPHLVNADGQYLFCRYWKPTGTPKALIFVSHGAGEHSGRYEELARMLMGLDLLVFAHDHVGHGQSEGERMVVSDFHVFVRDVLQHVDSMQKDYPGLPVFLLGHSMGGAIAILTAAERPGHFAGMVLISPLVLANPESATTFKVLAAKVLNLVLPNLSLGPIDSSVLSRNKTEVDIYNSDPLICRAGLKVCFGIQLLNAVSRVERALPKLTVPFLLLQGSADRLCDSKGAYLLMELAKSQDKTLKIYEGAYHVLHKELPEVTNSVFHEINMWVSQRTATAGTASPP

[2] = biological target: T2, hFAAH (Homo sapiens, UniProt O00519); test: FAAH activity assay, hFAAH-COS7 membranes (3H-anandamide); format: biochemical
T2 construct: expressed in transfected cells; host or cells: COS-7
T2 sequence (O00519 1-579): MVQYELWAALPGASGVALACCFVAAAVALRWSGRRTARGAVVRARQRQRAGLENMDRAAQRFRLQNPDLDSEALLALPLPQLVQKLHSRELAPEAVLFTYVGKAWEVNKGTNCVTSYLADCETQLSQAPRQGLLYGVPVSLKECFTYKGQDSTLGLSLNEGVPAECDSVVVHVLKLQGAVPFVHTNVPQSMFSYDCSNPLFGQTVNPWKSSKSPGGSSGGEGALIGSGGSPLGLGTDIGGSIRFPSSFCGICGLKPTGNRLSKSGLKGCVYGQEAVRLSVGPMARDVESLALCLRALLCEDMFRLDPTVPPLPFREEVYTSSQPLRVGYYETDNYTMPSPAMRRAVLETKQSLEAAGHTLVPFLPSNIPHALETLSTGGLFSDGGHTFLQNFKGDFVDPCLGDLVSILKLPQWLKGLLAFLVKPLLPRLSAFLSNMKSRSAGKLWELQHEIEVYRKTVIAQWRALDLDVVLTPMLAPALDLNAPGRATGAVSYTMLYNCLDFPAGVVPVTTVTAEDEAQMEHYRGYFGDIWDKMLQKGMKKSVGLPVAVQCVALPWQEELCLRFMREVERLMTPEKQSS

[3] = test system: LYPLA1; parameters: method as in PMID 20418879; conditions: originally reported; read-out: IC50 in vitro towards LYPLA1; cited from earlier work
[4] = biological target: T3, BAT5 (Mus musculus, UniProt Q9Z1Q2); test: Competitive ABPP, mouse brain membrane proteome: BAT5 band; conditions: tested concentration range 10^−8–10^−5 M
T3 sequence (Q9Z1Q2 1-558): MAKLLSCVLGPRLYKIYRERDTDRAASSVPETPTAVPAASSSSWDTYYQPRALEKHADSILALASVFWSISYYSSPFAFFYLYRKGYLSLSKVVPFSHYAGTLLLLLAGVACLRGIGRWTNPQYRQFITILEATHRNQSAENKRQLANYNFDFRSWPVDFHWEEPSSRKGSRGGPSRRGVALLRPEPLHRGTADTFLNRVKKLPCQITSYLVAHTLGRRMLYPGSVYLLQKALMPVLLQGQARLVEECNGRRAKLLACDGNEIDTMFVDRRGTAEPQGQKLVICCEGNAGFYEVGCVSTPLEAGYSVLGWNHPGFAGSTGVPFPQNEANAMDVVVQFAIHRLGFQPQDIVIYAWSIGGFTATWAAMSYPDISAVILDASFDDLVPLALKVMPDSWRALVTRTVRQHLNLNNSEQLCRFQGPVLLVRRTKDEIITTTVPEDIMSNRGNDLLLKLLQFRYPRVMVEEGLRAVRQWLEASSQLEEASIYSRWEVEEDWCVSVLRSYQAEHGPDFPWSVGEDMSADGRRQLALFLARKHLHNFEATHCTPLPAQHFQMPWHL

[5] = biological target: T4, ABHD6 (Mus musculus, UniProt Q8R2Y0); test: Competitive ABPP, mouse brain membrane proteome: ABHD6 band; conditions: at the highest concentration (10^−5 M)
T4 sequence (Q8R2Y0 1-336): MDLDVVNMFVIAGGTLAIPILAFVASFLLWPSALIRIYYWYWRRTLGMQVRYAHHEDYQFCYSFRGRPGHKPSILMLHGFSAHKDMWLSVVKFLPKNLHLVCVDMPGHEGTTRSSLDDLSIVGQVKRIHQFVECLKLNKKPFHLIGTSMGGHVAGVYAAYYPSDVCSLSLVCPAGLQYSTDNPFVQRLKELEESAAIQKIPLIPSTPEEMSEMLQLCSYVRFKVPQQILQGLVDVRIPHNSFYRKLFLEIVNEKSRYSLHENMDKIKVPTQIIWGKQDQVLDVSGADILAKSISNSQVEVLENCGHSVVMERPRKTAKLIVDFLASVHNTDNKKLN

[6] = biological target: T5, ABHD12 (Mus musculus, UniProt Q99LR1); test: Competitive ABPP, mouse brain membrane proteome: ABHD12 band; conditions: tested concentration range 10^−8–10^−5 M
T5 sequence (Q99LR1 1-398): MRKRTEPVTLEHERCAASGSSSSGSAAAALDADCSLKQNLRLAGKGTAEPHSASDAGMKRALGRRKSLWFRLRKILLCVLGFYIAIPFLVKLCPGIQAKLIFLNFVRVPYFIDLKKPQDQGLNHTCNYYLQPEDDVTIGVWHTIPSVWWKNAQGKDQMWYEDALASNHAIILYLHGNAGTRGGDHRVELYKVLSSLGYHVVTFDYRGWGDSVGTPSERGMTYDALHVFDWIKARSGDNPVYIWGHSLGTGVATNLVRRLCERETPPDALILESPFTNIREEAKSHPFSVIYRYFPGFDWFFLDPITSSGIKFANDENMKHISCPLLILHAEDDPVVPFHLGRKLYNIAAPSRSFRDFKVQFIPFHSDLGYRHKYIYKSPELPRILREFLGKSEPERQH

[7] = biological target: T6, MAGL (Mus musculus, UniProt O35678); test: Competitive ABPP, mouse brain membrane proteome: MAGL doublet; conditions: at the highest concentration (10^−5 M)
T6 sequence (O35678 1-303): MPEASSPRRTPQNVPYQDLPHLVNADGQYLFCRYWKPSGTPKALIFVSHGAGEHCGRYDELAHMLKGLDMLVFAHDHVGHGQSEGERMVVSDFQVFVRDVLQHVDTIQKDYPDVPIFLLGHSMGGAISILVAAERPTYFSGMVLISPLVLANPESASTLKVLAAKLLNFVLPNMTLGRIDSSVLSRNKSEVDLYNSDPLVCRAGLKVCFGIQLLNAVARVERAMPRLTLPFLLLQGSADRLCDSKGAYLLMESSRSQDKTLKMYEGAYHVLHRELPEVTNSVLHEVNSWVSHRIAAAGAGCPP

[8] = test system: LYPLA1/2; test: Competitive ABPP, mouse brain membrane proteome: LYPLA1/2 band; conditions: tested concentration range 10^−8–10^−5 M

Compound: CCCCCCCCCC[C@@H]1C(=O)O[C@H]1CCc1ccc(OC)c(OC)c1 [Palmostatin B, palmostatin B]
- IC50 [1]: 93.3 nM
- sensitivity of hFAAH (in words) [2]: resistant
- remaining activity at 1 µM ([2]; at 10^−6 M): 92.4%
- IC50 [3]: 670 nM
- inhibition of probe binding to BAT5 [4]: dose-dependently inhibited probe binding; also recorded: dose-dependently inhibits probe labeling
- inhibition of probe binding to ABHD6 [5]: inhibited probe binding; also recorded: also inhibited
- inhibition of probe binding to ABHD12 [6]: dose-dependently inhibited probe binding; also recorded: dose-dependently inhibits probe labeling
- inhibition of probe binding to MAGL [7]: inhibited probe binding; also recorded: also inhibited
- inhibition of probe binding to LYPLA1/2 [8]: dose-dependently inhibited probe binding; also recorded: dose-dependently inhibits probe labeling
